Read-outs that look alike come from different tables or passages of the source.
How the values were obtained:
[1] = Franz diffusion cell permeation of 3H-labeled TRH (Example 5); type: in vitro ADME, human
Method: A human full-skin sample was positioned in the cell with a 0.05 M phosphate buffer solution (pH 6.0) as receiving phase on the "receptor" side of the skin. 180 µl of 5 % thyroid-releasing hormone (TRH) in dist. water with and without the addition of 25% delmopinol hydrochloride was used on the "donor" side of the skin. The TRH was ^3H-labeled. Penetration with and without addition of delmopinol hydrochloride was studied in 2 parallel tests (4 cells per test).
Radioactivity in the receiving phase was read at different time intervals over a one week period.

[2] = type: in vitro ADME, human
Method: 180 µl of 1 % mannitol in distilled water with and without the addition of 1, 5, 10 and 25 % delmopinol hydrochloride respectively was used on the "donor" side of the skin. The mannitol was ^3H-labeled.
A very pronounced effect of the penetration enhancer was seen, but only little if any difference between the concentrations 5, 10 and 25 %, as shown in Table 4.

[3] = Franz diffusion cell permeation of hydromorphone hydrochloride with delmopinol analogues (Example 2); conditions: 5 % hydromorphone hydrochloride in distilled water with 25 % delmopinol analogue
Method: The permeation test was carried out using a Franz diffusion cell with a diffusion area of 1.8 cm^2 as in Example 1. […] Penetration with or without addition of different delmopinol analogues was studied in 5 parallel tests (3 cells per test).

[4] = Method: The permeation test was carried out using a Franz diffusion cell with a diffusion area of 1.8 cm^2 as in Example 1. […] 180 µl of 1 % nicotinic acid in distilled water with and without the addition of 25% delmopinol hydrochloride was used on the "donor" side of the skin. The nicotinic acid was ^14C-labeled. Penetration with and without addition of delmopinol hydrochloride was studied in 2 parallel tests (3 cells per test).
Radioactivity in the receiving" phase was read at different time intervals over a one week period. […]

Remark: listed apart in the source
[5] = tested on: plasma glucose; experiment: Nasal absorption of insulin with octapinol hydrochloride, reduction in plasma glucose (Example 6); type: in vivo, Sprague Dawley male rats; conditions: for D (%) total reduction in plasma glucose / Maximum reduction in plasma glucose (%): nasal, mean (S.D.), n=6
Method: Tests on the enhancement effect of octapinol (M1523), i.e.4-(2-propylpentyl)-1- 2-propylpentyl)-1-piperidine-ethanol, a compound according to Formula (I), for nasal absorption of peptides were carried out on Sprague Dawley male rats with an individual weight of 250-300 g. The rats were fasted for 15-17 hours and anaesthetized prior to the tests. Trachea and arteria carotis were catheterized with a polyethylene tube. The peptide used for the tests was insulin.
The rats were divided into 5 groups and were administered through the nostril via a polyethylene tube with • 1 % octapinol hydrochloride (placebo group) • insulin (Actrapid ® Human from NovoNordisk, Denmark) 5 IE/kg body weight in physiological NaCl (control group) • insulin 2.5 IE/kg body weight with 0.02% octapinol hydrochloride (test group) • insulin 2.5 IE/kg body weight with 0.2% octapinol hydrochloride (test group) • insulin 2.5 IE/kg body weight with 1% octapinol hydrochloride (test group) The pH-value was 3.1 in the test solutions. The administration volume per rat was 25-30 µl.
There were 4 rats in the placebo group, 3 rats in the control group and 6 rats in each of the three test groups.
During the initial tests octapinol hydrochloride was administered nasally together with insulin 5 IE/kg body weight. At an early stage, pronounced reductions in plasma glucose with 1% octapinol hydrochloride were noted.
In the control and test groups 150 µl blood was taken from arteria carotis 0, 10, 20, 30, 40, 50, 60, 120, 180 and 240 minutes respectively after administration.
(§1) The plasma content of glucose was determined through measurement of the amount NADH formed in accordance with the below reactions. [drawing 4] glucose-6-phosphate + NAD^+ -----> 6-phosphogluconate + NADH + H^+
The change in glucose content was set off against time and the area below the graph (AUC) was calculated with the trapezium method.
The total reduction in plasma glucose (D%) and the maximal reduction in plasma glucose after nasal administration of insulin with octapinol hydrochloride is given in Table 6. The total reduction in plasma glucose (D%) was calculated according to Hirai et al (Int. J. Pharmaceut., 9,173-184: 1981). D % = (AUCc −AUCin)/(AUCc) × 100 [formula] • AUCc= area under the graph for intranasally administered insulin 5 IE/kg body weight in physiological Na Cl (control group) • AUCin= area under the graph for intranasally administered insulin in octapinol solution Table 6

[6] = tested on: plasma glucose; experiment: Intravenous administration of octapinol hydrochloride + insulin, reduction in plasma glucose; type: in vivo, Sprague Dawley male rats; conditions: 1% octapinol hydrochloride + 0.2 IE insulin/kg intravenously, after 20 minutes
Method: A reduction in plasma glucose of about 40 % was observed after 20 minutes.
as §1

[7] = insulin 2.5 IE/kg with 0.02 % octapinol hydrochloride
[8] = insulin 2.5 IE/kg with 0.2 % octapinol hydrochloride
[9] = insulin 2.5 IE/kg with 1 % octapinol hydrochloride

## thyroid-releasing hormone (TRH) [reference compound]
[1]; 5 % TRH in dist. water without enhancer
  Flux (steady state flux of TRH): 4 ng/h/cm^2

## OC[C@@H](O)[C@@H](O)[C@H](O)[C@H](O)CO [mannitol, reference compound]
[2]
  Flux (of mannitol): 6.6 µg/h/cm^2

## CCCC(CCC)CCCC1COCC[N+]1(C)CCO.[Cl-] (stereo not shown) [M 1713, 4-(2-hydroxyethyl)-4-methyl-3-(4-propylheptyl)-morpholinium chloride]
[3]
  Flux (of hydromorphone hydrochloride): 4.8 µg/h/cm^2

## CCCCCCCCCCC1CN(CCCO)CCO1 (stereo not shown) [M 1676]
[3]
  Flux (of hydromorphone hydrochloride): 19 µg/h/cm^2

## CCCC(CCC)CCCC1COCCN1CCO (stereo not shown) [delmopinol]
[4]; pH 7.4
  Flux (steady state flux of nicotinic acid): 1.5 µg/h/cm^2
[1]; pH 6
  Flux (steady state flux of TRH): 34 ng/h/cm^2
10 % morphine sulphate in distilled water with 25% delmopinol hydrochloride
  steady state flux of morphine sulphate: about 26 µg/h/cm^2
In the presence of 25 % delmopinol versus without
  factor by which permeation of hydromorphone hydrochloride is increased: about 290

## O=C(O)c1cccnc1 [nicotinic acid, reference compound]
[4]
  Flux (steady state flux of nicotinic acid): 0.15 µg/h/cm^2

## CCCC(CCC)CC1CCN(CCO)CC1 [M 1523 (octapinol)]
[3]
  Flux (of hydromorphone hydrochloride): 13 µg/h/cm^2
[5]; 1% octapinol hydrochloride alone, nasally, four rats
  change in plasma glucose level: No significant change
[5]; initial tests: nasal, insulin 5 IE/kg with 1% octapinol hydrochloride
  reductions in plasma glucose, of the initial plasma glucose value: 85 - 90%
[5]; [7]
  D (%) total reduction in plasma glucose: 3.6 (3.2) %
  Maximum reduction in plasma glucose (%): 3.5 (2.9) %
[5]; [8]
  D (%) total reduction in plasma glucose: 9.5 (5.3) %
  Maximum reduction in plasma glucose (%): 6.5 (3.5) %
[5]; [9]
  D (%) total reduction in plasma glucose: 23.8 (5.8) %
  Maximum reduction in plasma glucose (%): 39.1 (11.3) %
[6]
  reduction in plasma glucose: about 40%
